The source of these data is patent US20180325781A1, “FORMULATIONS FOR CONTROLLED RELEASE OF BUPIVACAINE” (Research Triangle Institute, priority 2017, published 2018).

The conditions of data set [1]: single injection; cited from earlier work.
Data set [2] can be described thus: diffusion/release of free (unencapsulated) BP through hemostat matrix, dialysis method. Type of data set: physicochemical. Particulars: 1 mg free BP-HCl in 50 or 100 mg Gelfoam or Avitene; 1xPBS pH 7.2, 37° C.; over 24 hours. As for the experimental part: FIG. 5 is a graphical representation of the release of unencapsulated BP from matrix material. 1 mg of free BP—HCl in 0.9 wt/vol % NaCl was combined with either Gelfoam® or Avitene™ (at either 50 mg or 100 mg of matrix) and monitored for release through the matrix over time. The samples were placed in dialysis tubing and submerged in 1×PBS (pH=7.2) at 37° C.
To test the diffusion of free BP (i.e., not encapsulated in microparticles) through the hemostat, the material (i.e., free BP mixed with hemostat) was submerged in physiological media and the released BP measured over time.
In vitro release studies were performed using a dialysis method. […]
UHPLC analysis of released BP was performed on a Waters (Milford, Mass.) ACQUITY UHPLC system equipped with a PDA detector set to 205 nm to quantify BP. […]
The acid form of BP was chromatographically separated on a Waters ACQUITY BEH C18 column (1.7 μm, 2.1×50 mm) by isocratic elution with 70% phosphate buffer/30% ACN at a flow rate of 0.60 mL/min. […] Calibration standards were analyzed and the peaks corresponding to BP were integrated, plotted against the concentration, and the calibration curve was calculated by linear least-squares regression without weighting. […]

Structures can show the parent of a compound that is named as a salt.

With `CCCCN1CCCCC1C(=O)Nc1c(C)cccc1C` (stereo not drawn) [bupivacaine], in data set [1], the complete elimination is 6 to 8 h and the “time to maximum plasma drug concentration” value is 30 to 45 min.
Turning to `CCCCN1CCCCC1C(=O)Nc1c(C)cccc1C` (stereo not drawn) [free BP, bupivacaine hydrochloride monohydrate], the “release of free BP from the hemostat” value in data set [2] is “majority of free BP was released”.
